From article PMC5863515, “Re-evaluation of Adrenocorticotropic Hormone and Melanocyte Stimulating Hormone Activation of GPR139 in Vitro” (Frontiers in Pharmacology, 2018)
Where two headings read alike, the source gives them in different places.

Tests used:
MC3R = molecular target: T1, MC3R (Homo sapiens, UniProt P41968); test: Calcium mobilization, HEK-293 transiently expressing MC3R; format: cell-based
T1 construct: expressed in transfected cells; host or cells: HEK-293, pCIneo, transient (FuGene HD)
T1 sequence (P41968 whole entry): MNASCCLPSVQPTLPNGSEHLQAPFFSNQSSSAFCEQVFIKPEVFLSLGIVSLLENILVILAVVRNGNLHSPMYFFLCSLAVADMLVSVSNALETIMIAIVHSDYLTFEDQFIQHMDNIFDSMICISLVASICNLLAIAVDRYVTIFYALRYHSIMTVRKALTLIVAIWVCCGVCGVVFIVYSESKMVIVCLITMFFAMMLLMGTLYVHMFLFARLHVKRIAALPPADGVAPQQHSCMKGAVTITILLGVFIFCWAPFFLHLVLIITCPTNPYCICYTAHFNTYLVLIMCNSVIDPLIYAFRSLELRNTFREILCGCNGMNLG
Description: (§1) Human MC3R (NM_019888), MC4R (NM_005912), and MC5R (NM_005913) were transiently expressed in HEK-293 cells with and without human GPR139 (KR081941) or the chimeric G-protein Gα16. All genes were cloned into pCIneo (Promega, Madison, WI, United States, #E1841). HEK-293 cells were cultured in DMEM/F12 (Gibco, Grand Island, NY, United States, #11039-021), 10% FBS (Hyclone, Logan, UT, United States, # SH300700.03), 50 units/ml penicillin and 50 μg/ml streptomycin (Mediatech, Manassas, VA, United States, #30-001-CI). Cells were seeded at 4 × 10^6 cells in 10 cm dishes and allowed to grow overnight at 37°C, 5% CO2. On the day of transfection, culture media was replaced with F12-K (Mediatech, Manassas, VA, United States, #10-025-CV), 10% FBS, 20 mM HEPES (Hyclone, Logan, UT, United States, #SH30237.01) and transfected with 15 μg DNA (10 μg MCR:5 μg pCIneo, 10 μg MCR:5 μg Gα16 or 7.5 μg MCR:7.5 μg GPR139) using FuGene HD (Promega, Madison, WI, United States, #E2311) according to manufacturer’s instructions. MC3R, MC4R, and MC5R were also transiently expressed in the following GPR139 stably expressing cell lines using the FuGENE HD method: HEK-293 GPR139 clone#33, CHO-TREx GPR139 clone#18, and SK-N-MC/CRE TREx GPR139 clone#35. Stable cell lines were established according to method previously described ([Liu et al., 2015]).
(§2) Intracellular calcium mobilization was measured with the BD calcium kit (BD Bioscience, San Jose, CA, United States). The recombinant cell lines expressing MC3R, MC4R, and MC5R with and without GPR139 or Gα16 were seeded in culture media at a density of 50,000 cells/well into 96-well black/clear-bottom poly-D-lysine treated tissue culture plates. Cells were incubated overnight at 37°C and 5% CO2. Next day, culture media was removed and cells were washed with HBSS prior to dye-loading for 1 h at 37°C and 5% CO2. […] EC50s were calculated by fitting a three-parameter logistic curve using least-squares non-linear regression analysis as implemented in Graphpad Prism 7.0.

MC3R + Gα16 = molecular target: T2, MC3R + Gα16 (Homo sapiens, UniProt P41968); test: Calcium mobilization, HEK-293 transiently expressing MC3R + Gα16; format: cell-based
T2 construct: expressed in transfected cells; host or cells: HEK-293, pCIneo, transient (10 μg MCR:5 μg Gα16)
T2 sequence (P41968 whole entry): as above
Description: as §1, §2

MC3R + GPR139 = MC3R + GPR139 (Homo sapiens, UniProt Q6DWJ6); test: Calcium mobilization, HEK-293 transiently expressing MC3R + GPR139; format: cell-based
Sequence of MC3R + GPR139 (P41968 whole entry partner, one chain of several): as the sequence (P41968 whole entry) above
Description: Intracellular calcium mobilization was measured with the BD calcium kit (BD Bioscience, San Jose, CA, United States). The recombinant cell lines expressing MC3R, MC4R, and MC5R with and without GPR139 or Gα16 were seeded in culture media at a density of 50,000 cells/well into 96-well black/clear-bottom poly-D-lysine treated tissue culture plates. Cells were incubated overnight at 37°C and 5% CO2. Next day, culture media was removed and cells were washed with HBSS prior to dye-loading for 1 h at 37°C and 5% CO2. Agonist stimulation and intracellular calcium measurements were done on the FLIPR Tetra (Molecular Devices, Sunnyvale, CA, United States). […] EC50s were calculated by fitting a three-parameter logistic curve using least-squares non-linear regression analysis as implemented in Graphpad Prism 7.0.

MC4R = molecular target: T3, MC4R (Homo sapiens, UniProt P32245); test: Calcium mobilization, HEK-293 transiently expressing MC4R; format: cell-based
T3 construct: expressed in transfected cells; host or cells: HEK-293, pCIneo, transient (FuGene HD)
T3 sequence (P32245 whole entry): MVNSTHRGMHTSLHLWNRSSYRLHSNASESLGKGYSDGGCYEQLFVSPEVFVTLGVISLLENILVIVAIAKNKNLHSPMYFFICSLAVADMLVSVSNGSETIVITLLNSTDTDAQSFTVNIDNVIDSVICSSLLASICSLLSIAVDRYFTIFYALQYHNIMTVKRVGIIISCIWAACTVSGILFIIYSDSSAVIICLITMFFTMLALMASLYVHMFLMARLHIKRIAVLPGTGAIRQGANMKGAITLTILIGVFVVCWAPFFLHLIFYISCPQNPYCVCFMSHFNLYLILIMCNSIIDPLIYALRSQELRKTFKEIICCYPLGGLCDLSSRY
Description: as §1
(§3) Intracellular calcium mobilization was measured with the BD calcium kit (BD Bioscience, San Jose, CA, United States). The recombinant cell lines expressing MC3R, MC4R, and MC5R with and without GPR139 or Gα16 were seeded in culture media at a density of 50,000 cells/well into 96-well black/clear-bottom poly-D-lysine treated tissue culture plates. Cells were incubated overnight at 37°C and 5% CO2. Next day, culture media was removed and cells were washed with HBSS prior to dye-loading for 1 h at 37°C and 5% CO2. Agonist stimulation and intracellular calcium measurements were done on the FLIPR Tetra (Molecular Devices, Sunnyvale, CA, United States). For receptor inhibition analysis, antagonists (1 μM HS-024 or 10 μM JNJ-3792165) were added off-line 15 min prior to agonist addition on the Tetra. For G-protein inhibitor experiments, cells were treated with 1 μM YM-254890 for 5 min prior to agonist additions on the Tetra. […] Responses in Figure 6 were normalized to its respective agonist response without antagonist. EC50s were calculated by fitting a three-parameter logistic curve using least-squares non-linear regression analysis as implemented in Graphpad Prism 7.0.

MC4R + GPR139 = MC4R + GPR139 (Homo sapiens, UniProt Q6DWJ6); test: Calcium mobilization, HEK-293 transiently expressing MC4R + GPR139; format: cell-based
Sequence of MC4R + GPR139 (P32245 whole entry partner, one chain of several): as the sequence (P32245 whole entry) above
Description: as §1, §3

MC5R = molecular target: T4, MC5R (Homo sapiens, UniProt P33032); test: Calcium mobilization, HEK-293 transiently expressing MC5R; format: cell-based; conditions: HEK-293 transient; read-out: Agonist potency (pEC50), MC5R (converted)
T4 construct: expressed in transfected cells; host or cells: HEK-293, pCIneo, transient (FuGene HD)
T4 sequence (P33032 whole entry): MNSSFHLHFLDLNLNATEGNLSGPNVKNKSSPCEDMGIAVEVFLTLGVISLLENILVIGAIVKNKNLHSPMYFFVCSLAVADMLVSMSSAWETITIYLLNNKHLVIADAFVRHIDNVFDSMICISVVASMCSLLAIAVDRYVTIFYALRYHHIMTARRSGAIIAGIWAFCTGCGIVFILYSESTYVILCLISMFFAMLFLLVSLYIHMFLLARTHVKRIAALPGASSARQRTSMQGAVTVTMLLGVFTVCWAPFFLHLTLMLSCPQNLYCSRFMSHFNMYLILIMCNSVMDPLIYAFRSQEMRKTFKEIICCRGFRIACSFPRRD
Description: as §1, §2

MC5R + Gα16 = molecular target: T5, MC5R + Gα16 (Homo sapiens, UniProt P33032); test: Calcium mobilization, HEK-293 transiently expressing MC5R + Gα16; format: cell-based; conditions: HEK-293 transient; read-out: Agonist potency (pEC50), MC5R + Gα16 (converted)
T5 construct: expressed in transfected cells; host or cells: HEK-293, pCIneo, transient (10 μg MCR:5 μg Gα16)
T5 sequence (P33032 whole entry): as above
Description: as §1, §2

MC5R + GPR139 = MC5R + GPR139 (Homo sapiens, UniProt Q6DWJ6); test: Calcium mobilization, HEK-293 transiently expressing MC5R + GPR139; format: cell-based
Sequence of MC5R + GPR139 (P33032 whole entry partner, one chain of several): as the sequence (P33032 whole entry) above
Description: as §1, §3

GPR139 + MC4R = GPR139 + MC4R (Homo sapiens, UniProt Q6DWJ6); test: Calcium mobilization, stable GPR139-HEK-293 cell line transiently expressing MC4R; format: cell-based
Sequence of GPR139 + MC4R (P32245 whole entry partner, one chain of several): as the sequence (P32245 whole entry) above
Description: as §1, §2

GPR139 + MC5R = GPR139 + MC5R (Homo sapiens, UniProt Q6DWJ6); test: Calcium mobilization, stable GPR139-HEK-293 cell line transiently expressing MC5R; format: cell-based
Sequence of GPR139 + MC5R (P33032 whole entry partner, one chain of several): as the sequence (P33032 whole entry) above
Description: as §1, §2

GPR139 [1] = molecular target: T6, GPR139 (Homo sapiens, UniProt Q6DWJ6); set-up: method as in Shehata et al. (2016); conditions: ref Shehata et al. (2016); cited from earlier work
T6 sequence (Q6DWJ6 1-353): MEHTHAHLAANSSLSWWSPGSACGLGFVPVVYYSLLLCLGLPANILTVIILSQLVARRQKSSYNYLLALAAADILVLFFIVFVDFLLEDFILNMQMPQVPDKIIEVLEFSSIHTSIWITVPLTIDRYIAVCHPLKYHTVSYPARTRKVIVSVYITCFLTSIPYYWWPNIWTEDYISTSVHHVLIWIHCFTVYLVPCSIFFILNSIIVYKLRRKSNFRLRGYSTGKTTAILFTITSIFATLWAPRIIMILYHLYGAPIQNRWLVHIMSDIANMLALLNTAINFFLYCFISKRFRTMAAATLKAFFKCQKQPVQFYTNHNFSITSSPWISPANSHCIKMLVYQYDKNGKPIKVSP

GPR139 [2] = molecular target: T6, GPR139; test: Calcium mobilization, HEK-293 cells stably expressing human GPR139; format: cell-based; set-up: expressed in transfected cells
Description: as §1, §3

GPR139 [3] = molecular target: T6, GPR139; set-up: expressed in transfected cells; host or cells: CHO-TREx GPR139 clone#18; method as in Liu et al., 2015; conditions: used for Cheng-Prussoff; ref Liu et al., 2015; read-out: Kd of [3H]JNJ-63533054; cited from earlier work
GPR139 [4] = molecular target: T6, GPR139; set-up: method as in Liu et al., 2015; conditions: ref Liu et al., 2015; cited from earlier work
[5] = HEK-293 transient, read-out: Agonist potency (pEC50), MC3R (converted)
[6] = HEK-293 transient, read-out: Agonist potency (pEC50), MC3R + Gα16 (converted)
[7] = HEK-293 transient, read-out: Agonist potency (pEC50), MC4R (converted)
[8] = HEK-293 stable GPR139, read-out: pEC50, calcium mobilization (converted)

Row | Compound | EC50 (MC3R; [5]) [µM] | EC50 (MC3R + Gα16; [6]) [µM] | EC50 (MC3R + GPR139) [µM] | Agonist potency (pEC50), MC3R + GPR139, No antagonist (MC3R + GPR139) | EC50 (MC4R; [7]) [µM] | EC50 (MC4R + GPR139) [µM] | Agonist potency (pEC50), MC4R + GPR139, No antagonist (MC4R + GPR139) | EC50 (MC5R) [µM] | EC50 (MC5R + Gα16) [µM] | EC50 (MC5R + GPR139) [µM] | Agonist potency (pEC50), MC5R + GPR139, No antagonist (MC5R + GPR139) | EC50 (GPR139 + MC4R) [µM] | cAMP response (GPR139 [1]) | EC50 (GPR139 [2]; [8]) [µM] | EC50 (GPR139 + MC5R) [µM] | further results
1 | C[C@H](NC(=O)CNC(=O)c1cccc(Cl)c1)c1ccccc1 [JNJ-63533054, 3-chloro-N-[2-oxo-2-[[(1S)-1-phenylethyl]amino]ethyl]benzamide] | > 10 | > 10 | 0.0372 | 7.43 ± 0.09 | > 10 | 0.0355 | 7.45 ± 0.09 | > 10 | > 10 | 0.0209 | 7.68 ± 0.08 | 0.0174 | unable to induce or inhibit a cAMP response | 0.0214 | – | Agonist potency (pEC50), stable GPR139-HEK-293 + MC5R (GPR139 + MC5R): 7.80 ± 0.07; Kd (GPR139 [3]): 0.01 µM
2 | N[C@@H](Cc1c[nH]c2ccccc12)C(=O)O [L-Trp, L-tryptophan] | > 3160 | > 3160 | 87.1 | 4.06 ± 0.06 | > 3160 | 93.3 | 4.03 ± 0.05 | > 3160 | > 3160 | 95.5 | 4.02 ± 0.07 | 138 | – | 204 | 162 | EC50 (GPR139 [4]): 30 to 300 µM
3 | COc1cc(OC)cc(C(=O)NNC(=O)Nc2cccc3ccccc23)c1 [TC-O9311] | – | – | 0.0692 | 7.16 ± 0.08 | – | 0.0661 | 7.18 ± 0.08 | > 10 | > 10 | 0.0372 | 7.43 ± 0.06 | 0.0617 | unable to induce or inhibit a cAMP response | – | 0.0417 | EC50 (MC3R): > 10 µM; EC50 (MC3R + Gα16): > 10 µM; EC50 (MC4R): > 10 µM; EC50 (GPR139 [2]): 0.0776 µM
